Test results taken from patent US8603527B2, “Pharmaceutical formulations of a substituted diaminopurine” (Signal Pharmaceuticals, LLC, priority 2010, dated 2013).

Key:
healthy volunteers = assay: Safety and tolerability of ascending multiple oral doses in healthy volunteers; format: in vivo, human
Method: Study Design: This study was a randomized, double-blind, placebo-controlled, ascending-dose trial to evaluate the safety, tolerability and pharmacokinetics (PK) of multiple oral doses of Compound I. Subjects were enrolled into 1 of the 4 cohorts, 10 subjects per cohort (active:placebo=8:2). Subjects received a multiple oral dose of 25, 50, 100, or 200 mg unformulated Compound I in a capsule, or matching placebo, once daily (QD) for 14 days.
Assessments: Safety and tolerability were assessed by adverse event (AE) monitoring, clinical laboratory testing, vital sign measurement, 12-lead ECG measurement, concomitant medication assessment, and physical examination. Blood and urine samples were collected to assess the PK profile of Compound I and the S-cis isomer of Compound I. Blood samples (˜5 mL) for plasma PK analysis were collected in K2-EDTA vacutainer tubes to yield approximately 2 mL of plasma at each of the following time points: (i) Day 1: before dosing, and 0.25, 0.5, 1, 1.5, 2, 2.5, 3, 4, 6, 8, 10, 12, 16, and 24 hours after dosing; (ii) Day 3 to Day 9: before dosing; (iii) Day 10: before dosing, and 0.25, 0.5, 1, 1.5, 2, 2.5, 3, 4, 6, 8, 10, 12, and 16 hours after dosing; (iv) Day 11 to Day 13: before dosing; (v) Day 14: before dosing, and 0.25, 0.5, 1, 1.5, 2, 2.5, 3, 4, 6, 8, 10, 12, 16, 24, 48, 72, 96, 120, 144, and 168 hours after dosing. Urine samples for the PK analysis were collected as a single block at: (i) Day 1: before dosing (spot collection), 0 to 8, 8 to 16, and 16 to 24 hours after dosing; and (ii) Day 14: 0 to 8, 8 to 16, and 16 to 24 hours after dosing. Both plasma and urine concentrations of Compound I and its S-cis isomer were measured using validated liquid chromatography-tandem mass spectrometry (LC/MS/MS).
Data Analysis: Safety data were summarized using descriptive statistics by treatment. PK parameters for Compound I and its S-cis isomer were calculated using non-compartmental analysis using WinNonlin (Version 5.0.1 or greater; Pharsight Corporation, Mountain View, Calif.). Dose proportionality and dose independence were evaluated by visual inspection. Intra-subject variability was assessed using an ANOVA model using data from Days 10 and 14.

[1] = system: time-mated female New Zealand White Hra:(NZW)SPF rabbits; assay: Oral developmental toxicity study in the rabbit; conditions: rabbits
Text: (§1) Additionally, four groups of five animals/group served as toxicokinetic (TK) animals and received the vehicle or test article in the same manner and dose levels as the main study groups. All time-mated females arrived at the laboratory on GD 0, the day evidence of mating was observed.

[2] = Oral developmental toxicity study in the rabbit; conditions: female, New Zealand White Hra:(NZW)SPF, rabbit, in vivo, oral
Text: as §1

[3] = Relative bioavailability and food effect crossover study of formulated capsules in healthy male subjects; format: in vivo, human; conditions: Treatments A-D, single 100 mg dose
Text: Methods: This was an open-label, randomized, 4-treatment, 4-period, 4-sequence crossover study in healthy subjects to evaluate relative bioavailability and food effect on Compound I capsule formulations. The study consisted of a screening phase (Day −21 to Day −2) for subject eligibility, a baseline/admission phase (Day −1) for each period, treatment and assessment phase (Days 1 to Day 8) for each period, and a follow-up visit (Day 15±2 days from the last dose). During each period, subjects were domiciled at the study site from Day −1 through Day 2 (discharged on Day 3 after PK sampling and safety evaluations). Subjects then visited the study center on Days 4, 6, and 8 of each period for PK sampling and safety evaluations. Between periods, there was a minimum of 10 days of washout from the prior dose to the next dose (no more than 14 days).
Sixteen (16) male subjects were be randomized to one of the following 4 treatment sequences (4 subjects per sequence) on Day 1 of Period 1:
Subjects started fasting from the night of Day −1 for a minimum of 10 hours prior to dosing. On Day 1 of each period, subjects received their randomized treatment of Compound I at approximately 8 AM. […] Approximately 5 mL of blood sample was collected on days 1-8 for PK analysis. Subjects received standardized meals scheduled at approximately the same time during confinement in each period of the study.

Structure (SMILES): O[C@H]1CC[C@H](Nc2ncc3nc(Nc4c(F)cc(F)cc4F)n([C@H]4CCOC4)c3n2)CC1 [Compound I, 4-((9-((3S)-tetrahydro-3-furanyl)-8-((2,4,6-trifluorophenyl)amino)-9H-purin-2-yl)amino)-trans-cyclohexanol]
- Dermatitis contact, number of subjects reporting TEAE (healthy volunteers; 25 mg QD for 14 days (N = 8)): 0 n (%)
- Dizziness, number of subjects reporting TEAE (healthy volunteers; 25 mg QD for 14 days (N = 8)): 0 n (%)
- Flatulence, number of subjects reporting TEAE (healthy volunteers; 25 mg QD for 14 days (N = 8)): 0 n (%)
- Headache, E = number of TEAE (healthy volunteers; 25 mg QD for 14 days (N = 8)): 1
- Headache, number of subjects reporting TEAE (healthy volunteers; 25 mg QD for 14 days (N = 8)): 1 (12.5) n (%)
- Nasal congestion, E = number of TEAE (healthy volunteers; 25 mg QD for 14 days (N = 8)): 1
- Nasal congestion, number of subjects reporting TEAE (healthy volunteers; 25 mg QD for 14 days (N = 8)): 1 (12.5) n (%)
- Nausea, E = number of TEAE (healthy volunteers; 25 mg QD for 14 days (N = 8)): 1
- Nausea, number of subjects reporting TEAE (healthy volunteers; 25 mg QD for 14 days (N = 8)): 1 (12.5) n (%)
- Pharyngolaryngeal pain, number of subjects reporting TEAE (healthy volunteers; 25 mg QD for 14 days (N = 8)): 0 n (%)
- Rhinitis, number of subjects reporting TEAE (healthy volunteers; 25 mg QD for 14 days (N = 8)): 0 n (%)
- Total TEAEs, E = number of TEAE (healthy volunteers; 25 mg QD for 14 days (N = 8)): 6
- Total TEAEs, number of subjects reporting TEAE (healthy volunteers; 25 mg QD for 14 days (N = 8)): 3 (37.5) n (%)
- Dermatitis contact, E = number of TEAE (healthy volunteers; 50 mg QD for 14 days (N = 8)): 1
- Dermatitis contact, number of subjects reporting TEAE (healthy volunteers; 50 mg QD for 14 days (N = 8)): 1 (12.5) n (%)
- Dizziness, number of subjects reporting TEAE (healthy volunteers; 50 mg QD for 14 days (N = 8)): 0 n (%)
- Flatulence, E = number of TEAE (healthy volunteers; 50 mg QD for 14 days (N = 8)): 4
- Flatulence, number of subjects reporting TEAE (healthy volunteers; 50 mg QD for 14 days (N = 8)): 2 (25.0) n (%)
- Headache, E = number of TEAE (healthy volunteers; 50 mg QD for 14 days (N = 8)): 2
- Headache, number of subjects reporting TEAE (healthy volunteers; 50 mg QD for 14 days (N = 8)): 2 (25.0) n (%)
- Nasal congestion, number of subjects reporting TEAE (healthy volunteers; 50 mg QD for 14 days (N = 8)): 0 n (%)
- Nausea, number of subjects reporting TEAE (healthy volunteers; 50 mg QD for 14 days (N = 8)): 0 n (%)
- Pharyngolaryngeal pain, number of subjects reporting TEAE (healthy volunteers; 50 mg QD for 14 days (N = 8)): 0 n (%)
- Rhinitis, E = number of TEAE (healthy volunteers; 50 mg QD for 14 days (N = 8)): 1
- Rhinitis, number of subjects reporting TEAE (healthy volunteers; 50 mg QD for 14 days (N = 8)): 1 (12.5) n (%)
- Total TEAEs, E = number of TEAE (healthy volunteers; 50 mg QD for 14 days (N = 8)): 20
- Total TEAEs, number of subjects reporting TEAE (healthy volunteers; 50 mg QD for 14 days (N = 8)): 6 (75.0) n (%)
- Dermatitis contact, number of subjects reporting TEAE (healthy volunteers; 100 mg QD for 14 days (N = 8)): 0 n (%)
- Dizziness, E = number of TEAE (healthy volunteers; 100 mg QD for 14 days (N = 8)): 2
- Dizziness, number of subjects reporting TEAE (healthy volunteers; 100 mg QD for 14 days (N = 8)): 2 (25.0) n (%)
- Flatulence, number of subjects reporting TEAE (healthy volunteers; 100 mg QD for 14 days (N = 8)): 0 n (%)
- Headache, E = number of TEAE (healthy volunteers; 100 mg QD for 14 days (N = 8)): 3
- Headache, number of subjects reporting TEAE (healthy volunteers; 100 mg QD for 14 days (N = 8)): 3 (37.5) n (%)
- Nasal congestion, number of subjects reporting TEAE (healthy volunteers; 100 mg QD for 14 days (N = 8)): 0 n (%)
- Nausea, number of subjects reporting TEAE (healthy volunteers; 100 mg QD for 14 days (N = 8)): 0 n (%)
- Pharyngolaryngeal pain, E = number of TEAE (healthy volunteers; 100 mg QD for 14 days (N = 8)): 1
- Pharyngolaryngeal pain, number of subjects reporting TEAE (healthy volunteers; 100 mg QD for 14 days (N = 8)): 1 (12.5) n (%)
- Rhinitis, E = number of TEAE (healthy volunteers; 100 mg QD for 14 days (N = 8)): 1
- Rhinitis, number of subjects reporting TEAE (healthy volunteers; 100 mg QD for 14 days (N = 8)): 1 (12.5) n (%)
- Total TEAEs, E = number of TEAE (healthy volunteers; 100 mg QD for 14 days (N = 8)): 10
- Total TEAEs, number of subjects reporting TEAE (healthy volunteers; 100 mg QD for 14 days (N = 8)): 4 (50.0) n (%)
- Dermatitis contact, E = number of TEAE (healthy volunteers; 200 mg QD for 14 days (N = 8)): 1
- Dermatitis contact, number of subjects reporting TEAE (healthy volunteers; 200 mg QD for 14 days (N = 8)): 1 (12.5) n (%)
- Dizziness, E = number of TEAE (healthy volunteers; 200 mg QD for 14 days (N = 8)): 1
- Dizziness, number of subjects reporting TEAE (healthy volunteers; 200 mg QD for 14 days (N = 8)): 1 (12.5) n (%)
- Flatulence, number of subjects reporting TEAE (healthy volunteers; 200 mg QD for 14 days (N = 8)): 0 n (%)
- Headache, number of subjects reporting TEAE (healthy volunteers; 200 mg QD for 14 days (N = 8)): 0 n (%)
- Nasal congestion, E = number of TEAE (healthy volunteers; 200 mg QD for 14 days (N = 8)): 1
- Nasal congestion, number of subjects reporting TEAE (healthy volunteers; 200 mg QD for 14 days (N = 8)): 1 (12.5) n (%)
- Nausea, E = number of TEAE (healthy volunteers; 200 mg QD for 14 days (N = 8)): 3
- Nausea, number of subjects reporting TEAE (healthy volunteers; 200 mg QD for 14 days (N = 8)): 1 (12.5) n (%)
- Pharyngolaryngeal pain, E = number of TEAE (healthy volunteers; 200 mg QD for 14 days (N = 8)): 1
- Pharyngolaryngeal pain, number of subjects reporting TEAE (healthy volunteers; 200 mg QD for 14 days (N = 8)): 1 (12.5) n (%)
- Rhinitis, number of subjects reporting TEAE (healthy volunteers; 200 mg QD for 14 days (N = 8)): 0 n (%)
- Total TEAEs, E = number of TEAE (healthy volunteers; 200 mg QD for 14 days (N = 8)): 15
- Total TEAEs, number of subjects reporting TEAE (healthy volunteers; 200 mg QD for 14 days (N = 8)): 3 (37.5) n (%)
- serious or severe TEAE (healthy volunteers; 25-200 mg QD for 14 days): no serious or severe TEAE was reported
- subjects reporting treatment-emergent adverse events (healthy volunteers; active, 25-200 mg QD for 14 days): 16/32
- tolerability (healthy volunteers; doses up to 200 mg QD for 14 days): well tolerated
- NOEL for developmental toxicity [1]: 20 mg/kg/day
- doses at which developmental effects were observed [1]: 40 mg/kg/day
- teratogenicity [1]: teratogenic
- litters with viable fetuses for evaluation on GD 29 ([1]; 10 mg/kg/day): 19
- main study pregnancy index ([1]; 10 mg/kg/day): 95%
- litters with viable fetuses for evaluation on GD 29 ([1]; 20 mg/kg/day): 20
- main study pregnancy index ([1]; 20 mg/kg/day): 100%
- litters with viable fetuses for evaluation on GD 29 ([1]; 40 mg/kg/day): 10
- main study pregnancy index ([1]; 40 mg/kg/day): 95%
- litters containing one or more fetuses with a malformation ([1]; 40 mg/kg/day, GD 29, controls 25%): 70%
- NOAEL [2]: 20 mg/kg/day
- AUCt, Intra-Subject CV % [3]: 16.1%
- AUC∞, Intra-Subject CV % [3]: 15.3%
- Cmax, Intra-Subject CV % [3]: 36.8%
